The values that follow come from the NIST ThermoML archive (doi:10.1021/je500542j).

A word on the mass density: it is mass per unit of volume.

Values joined by “and” are separate entries in the source; they are usually repeats but may differ in a detail not shown here. Equal values may be shown once. ± gives the expanded uncertainty stated by the source.

The nature of the data set: wn = mass fraction of the nth substance listed. Conditions: 101 kPa, Liquid, Vibrating tube method.

As for `O=C(O)c1cccc(C(=O)O)c1` [1,3-benzenedicarboxylic acid] + CN1CCCC1=O, the mass density reads like this: (303.15 K, w1 = 0.1624) 1036.1 ± 1 kg/m3; (313.15 K, w1 = 0.1957) 1038.5 ± 7.6 kg/m3.
As to `O=C(O)c1ccc(C(=O)O)cc1` [1,4-benzenedicarboxylic acid] + CN1CCCC1=O, the mass density was 1029.5 ± 1 kg/m3 (303.15 K, w1 = 0.05896); 1031.5 ± 1 kg/m3 and 1038.5 ± 1 kg/m3 (313.15 K, w1 = 0.08754).
`O=C(O)c1ccccc1C(=O)O` [1,2-benzenedicarboxylic acid] + CN1CCCC1=O: the mass density was 1037.8 ± 1 kg/m3 and 1038 ± 1 kg/m3 (303.15 K, w1 = 0.158); 1042.8 ± 1.1 kg/m3 (313.15 K, w1 = 0.187).
